Laboratory results taken from patent US4060527A, “Pyrido[2,3-c]-acridine-1-hydroxy-2-carboxylic acid derivatives” (Fuji Chemical Industries, Ltd., priority 1975, dated 1977).
≈ marks a conversion by molar mass, not a printed value. Where two headings read alike, the source gives them in different places.

Assays:
Staphylococcus aureus [1] = assay: Antibacterial activity (MIC) against Staphylococcus aureus as Gram-positive bacterium; assay type: cell-based; details: Staphylococcus aureus; Table 3, class symbols; read-out: Antibacterial Activity (MIC) Staph. aureus
Protocol: (§1) Some of the compounds of this invention were tested as to their antibacterial activity (MIC, mcg/ml) against Staph. aureus as Gram-positive bacterium and E. coli as Gram-negative bacterium. In the table, the antibacterial activity of 0.09 to 1.25 mcg/ml. is indicated as A1, and the antibacterial activity of more than 1.25 mcg/ml. and not more than 2.5 mcg/ml. is indicated as A2.

Staphylococcus aureus [2] = assay: as above; assay type: cell-based; details: for MBC: Table 1, bacteriocidal, read-out: Staphylococcus aureus bacteriocidal action; for MIC: Table 1, bacteriostatic, read-out: Staphylococcus aureus bacteriostatic action (MIC)
Escherichia coli [3] = assay: Antibacterial activity (MIC) against Escherichia coli as Gram-negative bacterium; assay type: cell-based; details: for MBC: Table 1, bacteriocidal, read-out: Escherichia coli bacteriocidal action; for MIC: Table 1, bacteriostatic, read-out: Escherichia coli bacteriostatic action (MIC)
[4] = Acute toxicity LD50 on mouse; details: in vivo
Escherichia coli [5] = assay: Antibacterial activity (MIC) against Escherichia coli as Gram-negative bacterium; assay type: cell-based; details: Escherichia coli; Table 3, class symbols; read-out: Antibacterial Activity (MIC) E. coli
Protocol: as §1

in vivo = details: mouse
[6] = in vivo; cited from earlier work

With `Cc1ccc2nc3c(ccc4ncc(C(=O)O)c(O)c43)cc2c1` [Compound F-637] the MIC (Staphylococcus aureus [1]) was 0.09 to 1.25 µg/mL (≈ 0.296 to 4.11 µM), the MBC (Staphylococcus aureus [2]) was 2.5 µg/mL (≈ 8.22 µM) and the MIC (Staphylococcus aureus [2]) was 1.25 µg/mL (≈ 4.11 µM). It also gave an MBC (Escherichia coli [3]) of 1.25 µg/mL (≈ 4.11 µM), an MIC (Escherichia coli [3]) of 0.62 µg/mL (≈ 2.04 µM) and an LD50 ([4]; sc) of over 3000 mg/kg. For the same compound, the MIC (Escherichia coli [5]) was 0.09 to 1.25 µg/mL (≈ 0.296 to 4.11 µM), the LD50 (in vivo; iv) was 256 mg/kg and the LD50 (in vivo; po) was over 5000 mg/kg.
`CCc1c2ccccc2nc2c1ccc1ncc(C(=O)O)c(O)c12` [Compound F-635] gave an MIC (Staphylococcus aureus [1]) of 0.09 to 1.25 µg/mL (≈ 0.283 to 3.93 µM), an MBC (Staphylococcus aureus [2]) of 0.62 µg/mL (≈ 1.95 µM) and an MIC (Staphylococcus aureus [2]) of 0.62 µg/mL (≈ 1.95 µM). For the same compound, the MBC (Escherichia coli [3]) was 1.25 µg/mL (≈ 3.93 µM), the MIC (Escherichia coli [3]) was 1.25 µg/mL (≈ 3.93 µM) and the LD50 ([4]; sc) was over 3000 mg/kg. For the same compound, the MIC (Escherichia coli [5]) was 0.09 to 1.25 µg/mL (≈ 0.283 to 3.93 µM), the LD50 (in vivo; iv) was 186 mg/kg and the LD50 (in vivo; po) was over 5000 mg/kg.
For `O=C(O)c1cnc2ccc3c(-c4ccccc4)c4ccccc4nc3c2c1O` [Compound F-633], the MIC (Staphylococcus aureus [1]) was 0.09 to 1.25 µg/mL (≈ 0.246 to 3.41 µM), the MBC (Staphylococcus aureus [2]) was 1.25 µg/mL (≈ 3.41 µM) and the MIC (Staphylococcus aureus [2]) was 1.25 µg/mL (≈ 3.41 µM). For the same compound, the MBC (Escherichia coli [3]) was 1.25 µg/mL (≈ 3.41 µM), the MIC (Escherichia coli [3]) was 1.25 µg/mL (≈ 3.41 µM) and the LD50 ([4]; sc) was over 3000 mg/kg. It also gave an MIC (Escherichia coli [5]) of 0.09 to 1.25 µg/mL (≈ 0.246 to 3.41 µM), an LD50 (in vivo; iv) of 245 mg/kg and an LD50 (in vivo; po) of over 5000 mg/kg.
Work on `Cc1c2ccccc2nc2c1ccc1ncc(C(=O)O)c(O)c12` [Compound F-636] yielded an MIC (Staphylococcus aureus [1]) of 0.09 to 1.25 µg/mL (≈ 0.296 to 4.11 µM), an MBC (Staphylococcus aureus [2]) of 1.25 µg/mL (≈ 4.11 µM) and an MIC (Staphylococcus aureus [2]) of 1.25 µg/mL (≈ 4.11 µM). For the same compound, the MBC (Escherichia coli [3]) was 2.5 µg/mL (≈ 8.22 µM), the MIC (Escherichia coli [3]) was 1.25 µg/mL (≈ 4.11 µM) and the LD50 ([4]; sc) was over 3000 mg/kg. The MIC (Escherichia coli [5]) was 0.09 to 1.25 µg/mL (≈ 0.296 to 4.11 µM), the LD50 (in vivo; iv) was 235 mg/kg and the LD50 (in vivo; po) was over 5000 mg/kg.
For acriflavin, the toxicity [6] is listed as “fairly high toxicity, and exhibit high toxicity in internal administration”.
Compound `O=C(O)c1cnc2ccc3cc4ccccc4nc3c2c1O` [Compound F-631] has an MIC (Staphylococcus aureus [1]) of 0.09 to 1.25 µg/mL (≈ 0.31 to 4.31 µM), an MBC (Staphylococcus aureus [2]) of 1.25 µg/mL (≈ 4.31 µM) and an MIC (Staphylococcus aureus [2]) of 1.25 µg/mL (≈ 4.31 µM). The MBC (Escherichia coli [3]) was 1.25 µg/mL (≈ 4.31 µM), the MIC (Escherichia coli [3]) was 1.25 µg/mL (≈ 4.31 µM) and the LD50 ([4]; sc) was over 3000 mg/kg. The MIC (Escherichia coli [5]) was 0.09 to 1.25 µg/mL (≈ 0.31 to 4.31 µM), the LD50 (in vivo; iv) was 230 mg/kg and the LD50 (in vivo; po) was over 5000 mg/kg.
With `CCn1cc(C(=O)O)c(=O)c2ccc(C)nc21` [Nalidixic acid, reference compound] the MIC (Staphylococcus aureus [2]) was 125 µg/mL (≈ 538 µM), the MBC (Escherichia coli [3]) was 6.25 µg/mL (≈ 26.9 µM) and the MIC (Escherichia coli [3]) was 6.25 µg/mL (≈ 26.9 µM). The LD50 ([4]; iv) was 176 mg/kg, the LD50 ([4]; po) was 3300 mg/kg and the LD50 ([4]; sc) was 500 mg/kg.
`CCCCc1c2ccccc2nc2c1ccc1ncc(C(=O)O)c(O)c12` [Compound F-634] showed an MIC (Staphylococcus aureus [1]) of 0.09 to 1.25 µg/mL (≈ 0.26 to 3.61 µM), an MBC (Staphylococcus aureus [2]) of 0.25 µg/mL (≈ 0.722 µM) and an MIC (Staphylococcus aureus [2]) of 0.25 µg/mL (≈ 0.722 µM). For the same compound, the MBC (Escherichia coli [3]) was 0.62 µg/mL (≈ 1.79 µM), the MIC (Escherichia coli [3]) was 0.62 µg/mL (≈ 1.79 µM) and the LD50 ([4]; sc) was over 3000 mg/kg. For the same compound, the MIC (Escherichia coli [5]) was 0.09 to 1.25 µg/mL (≈ 0.26 to 3.61 µM), the LD50 (in vivo; iv) was 215 mg/kg and the LD50 (in vivo; po) was over 5000 mg/kg.
In the case of `Cc1cc2cc3ccccc3nc2c2c(O)c(C(=O)O)cnc12` [Compound F-632], the MIC (Staphylococcus aureus [1]) is reported as 0.09 to 1.25 µg/mL (≈ 0.296 to 4.11 µM), the MBC (Staphylococcus aureus [2]) is reported as 2.5 µg/mL (≈ 8.22 µM) and the MIC (Staphylococcus aureus [2]) is reported as 1.25 µg/mL (≈ 4.11 µM). For the same compound, the MBC (Escherichia coli [3]) was 1.25 µg/mL (≈ 4.11 µM), the MIC (Escherichia coli [3]) was 0.62 µg/mL (≈ 2.04 µM) and the LD50 ([4]; sc) was over 3000 mg/kg. The MIC (Escherichia coli [5]) was 0.09 to 1.25 µg/mL (≈ 0.296 to 4.11 µM), the LD50 (in vivo; iv) was 253 mg/kg and the LD50 (in vivo; po) was over 5000 mg/kg.
Work on `CS(=O)(=O)c1c2ccccc2nc2c1ccc1ncc(C(=O)O)c(O)c12` [Compound F-889, Pyrido[2,3-c]-acridine-1-hydroxy-7-methylsulfonyl-2-carboxylic acid] yielded an MIC (Staphylococcus aureus [1]) of 0.09 to 1.25 µg/mL (≈ 0.244 to 3.39 µM) and an MIC (Escherichia coli [5]) of 0.09 to 1.25 µg/mL (≈ 0.244 to 3.39 µM).
`O=C(O)c1cnc2ccc3cc4cc(O)ccc4nc3c2c1O` [Compound F-931, Pyrido[2,3-c]-1,9-dihydroxy-2-carboxylic acid] showed an MIC (Staphylococcus aureus [1]) of 0.09 to 1.25 µg/mL (≈ 0.294 to 4.08 µM) and an MIC (Escherichia coli [5]) of 0.09 to 1.25 µg/mL (≈ 0.294 to 4.08 µM).
